{"source": "patent US7972793B2", "about": "“Methods and compositions for the treatment of psychotic disorders through the identification of the SULT4A1-1 haplotype” (Suregene, LLC, priority 2009, dated 2011)", "key": {"[1]": {"test_system": "CATIE African American schizophrenia patients", "experiment": "CATIE drug response: change in total PANSS (LOCF), segmented by SULT4A1-1 status, African Americans", "type": "in vivo, human", "procedure": "The design of the CATIE study has been described in detail by others (Lieberman et al., 2005; Stroup et al., 2003). […] A total of 738 subjects consented to provide DNA for genetic study. […] Retrospective genetic analyses, judged to be exempt from human studies requirements by an IRB, were conducted in the current study. All tested patients were studied using well established clinical endpoints comparing baseline, intermediate, and last observation carried forward (LOCF) for the PANSS scores using CATIE data. […] To remove time on drug as a variable for the CATIE trial, analysis was limited to only those patients who were randomized to a different drug following the initial washout period (drug switchers)."}, "[2]": {"test_system": "patients, populations not segmented by SULT4A1-1 status", "conditions": "meta-analysis, Leucht et al. (2009); negative = greater reduction in PANSS; cited from earlier work"}, "[3]": {"test_system": "CATIE patients with schizophrenia of European ancestry", "experiment": "CATIE Phase I percent change of PANSS from baseline (LOCF), linear model with haplotype and drug therapy", "type": "in vivo, human", "conditions": "Table 18", "from_the_text": "Genotype and phenotype data for the CATIE trial were recently made available to qualified researchers through The NIMH Center for Collaborative Genetic Studies on Mental Disorders. The inventors evaluated data for 417 CATIE patients with schizophrenia self reported as having exclusively European ancestry. This same patient population was described in a recent study by Sullivan and coworkers, which confirmed that there is no hidden stratification in the sample (Sullivan et al., 2008).\nThe CATIE clinical data set included baseline PANSS scores based on clinical assessments prior to initiation of the assigned therapy, but following the washout period for any patients previously on antipsychotic medication. Follow up PANSS data for the CATIE trial were collected at each visit as described in detail by others (Stroup et al., 2003). Briefly, the first visit was after one month of treatment, and subsequent visits were at somewhat irregular intervals of approximately three months for up to a total 18 months or until discontinuation of treatment, whichever came first.\nFor all subsequent analyses, the inventors focused on the single haplotype, designated SULT4A1-1. EM algorithm haplotypes were assigned to each patient using HelixTree software (Version 6.4.1; Golden Helix, Bozeman, Mont.), and each individual was scored as being positive or negative for the presence of the haplotype. The inventors assigned SULT4A1-1 haplotype status to those individuals for which EM algorithm assignment could be made with error probabilities of <1%. This included a total of 395 patients from the CATIE study. With the exception of four of the 395 patients in the CATIE study, SULT4A1-1 haplotype status could be assigned with error probabilities of <1×10-5.\nSince follow-up on subjects was not done at uniform time intervals, analysis was done using the last observation for each patient in treatment Phase I of the trial as the measure of response (last observation carried forward, LOCF). Main effect and interaction terms between the SULT4A1-1 haplotype and drug therapy were included in the linear model. A pre-determined set of contrasts for differences in percent change PANSS by haplotype within each drug therapy (three comparisons) and by drug therapy within each haplotype (six comparisons) were evaluated, with adjustment for multiple-comparisons using the step-up false-discovery rate (FDR) controlling procedure (Benjamini and Hochberg, 1995). A sub-analysis omitting those patients who were randomized to the same antipsychotic drug therapy was also conducted. […]"}}}
{"smiles": "OCCOCCN1CCN(C2=Nc3ccccc3Sc3ccccc32)CC1", "note": "[Quetiapine]", "values": [{"measurement": "≦−20% (number of individuals; responders)", "setting": "[1]; SULT4A1-1 Negative", "result": 9}, {"measurement": "≧−20% (number of individuals; non-responders)", "setting": "[1]; SULT4A1-1 Negative", "result": 25}, {"measurement": "≦−20% (number of individuals; responders)", "setting": "[1]; SULT4A1-1 Positive", "result": 2}, {"measurement": "≧−20% (number of individuals; non-responders)", "setting": "[1]; SULT4A1-1 Positive", "result": 4}, {"measurement": "Effect Size vs. Placebo", "setting": "[2]", "result": "−0.42"}, {"measurement": "Difference in percent change in PANSS score", "setting": "[3]; Complete Sample, SULT4A1-1+ patients, labelled drug vs Risperidone", "result": "−1.0", "unit": "%"}, {"measurement": "Difference in percent change in PANSS score", "setting": "[3]; Complete Sample, same drug, SULT4A1-1+ vs SULT4A1-1−", "result": "−5.4", "unit": "%"}, {"measurement": "Difference in percent change in PANSS score", "setting": "[3]; Patients Randomized to a Different Medication, SULT4A1-1+ patients, labelled drug vs Risperidone", "result": "−4.6", "unit": "%"}, {"measurement": "Difference in percent change in PANSS score", "setting": "[3]; Patients Randomized to a Different Medication, same drug, SULT4A1-1+ vs SULT4A1-1−", "result": "−6.8", "unit": "%"}]}
